This note sets out measurements from PubChem BioAssay AID330 (DTP/NCI, 2004).

The test system of this assay is P388 leukemia ip, CD2F1 mice, survival T/C. Kind of assay: NCI In Vivo Anticancer Drug Screen. Data for tumor model P388 Leukemia (intraperitoneal) in CD2F1 (CDF1) mice. Conditions: endpoint: median survival time, higher = longer survival. An outline of the steps: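 Mice carrying the transplanted tumor received test compound or vehicle. Survival was recorded in each group, and the value is the treated-group measurement divided by that of the vehicle-treated control group.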

Setting [1] is: dose: 50.0 mg/kg/injection, schedule: Q01DX005 (ip), vehicle: Klucel (hydroxypropylcellulose) (HPC).
[2] abbreviates: dose: 100.0 mg/kg/injection, schedule: Q01DX005 (ip), vehicle: Klucel (hydroxypropylcellulose) (HPC).
[3] abbreviates: dose: 200.0 mg/kg/injection, schedule: Q01DX005 (ip), vehicle: Klucel (hydroxypropylcellulose) (HPC).

Where “and” joins values, the source holds several entries; their conditions need not be identical. Equal entries are not always repeated. Toxic doses and inconclusive results are not listed.

For `C/C(=N/N=C(N)N)c1cn[nH]c1C`, the T/C (dose: 60.0 mg/kg/injection, schedule: Q01DX005 (ip), vehicle: Klucel (hydroxypropylcellulose) (HPC)) was 107 % of control and the T/C (dose: 120.0 mg/kg/injection, schedule: Q01DX005 (ip), vehicle: Klucel (hydroxypropylcellulose) (HPC)) was 100 % of control.

Turning to `COc1ccc(-c2cc(=O)c3c(O)cc(O)c(-c4cc(-c5cc(=O)c6c(O)cc(OC)cc6o5)ccc4OC)c3o2)cc1`, the T/C under setting [1] is 105 % of control, the T/C under setting [2] was 99 % of control and the T/C under setting [3] is 88 % of control.

As to `CC12C(=Nc3ccccc31)CCc1ccccc12` (stereo unspecified), the T/C runs as follows: (dose: 50.0 mg/kg/injection, schedule: Q01DX005 (ip), vehicle: saline + Tween-80 + alcohol) 99 % of control; (dose: 100.0 mg/kg/injection, schedule: Q01DX005 (ip), vehicle: saline + Tween-80 + alcohol) 100 % of control; (dose: 200.0 mg/kg/injection, schedule: Q01DX005 (ip), vehicle: saline + Tween-80 + alcohol) 100 % of control.

Consider `O=CN(O)CC(=O)O`, for which the T/C is 95 % of control (dose: 50.0 mg/kg/injection, schedule: Q01DX009 (ip), vehicle: saline with Tween-80); 104 % of control (dose: 50.0 mg/kg/injection, schedule: Q04DX003 (ip), vehicle: saline sonified); 104 % of control (dose: 100.0 mg/kg/injection, schedule: Q01DX009 (ip), vehicle: saline with Tween-80); 100 % of control (dose: 100.0 mg/kg/injection, schedule: Q01DX009 (ip), vehicle: saline); 100 % of control (dose: 100.0 mg/kg/injection, schedule: Q04DX003 (ip), vehicle: saline sonified); 100 % of control (dose: 100.0 mg/kg/injection, schedule: Q04DX003 (ip), vehicle: saline). Besides, the T/C was 95 % of control (dose: 200.0 mg/kg/injection, schedule: Q01DX009 (ip), vehicle: saline with Tween-80); 109 % of control (dose: 200.0 mg/kg/injection, schedule: Q01DX009 (ip), vehicle: saline); 100 % of control (dose: 200.0 mg/kg/injection, schedule: Q04DX003 (ip), vehicle: saline sonified); 108 % of control (dose: 200.0 mg/kg/injection, schedule: Q04DX003 (ip), vehicle: saline); 100 % of control (dose: 400.0 mg/kg/injection, schedule: Q01DX009 (ip), vehicle: saline with Tween-80); 100 % of control (dose: 400.0 mg/kg/injection, schedule: Q01DX009 (ip), vehicle: saline). Moreover, the T/C reads like this: (dose: 400.0 mg/kg/injection, schedule: Q04DX003 (ip), vehicle: saline sonified) 100 % of control; (dose: 400.0 mg/kg/injection, schedule: Q04DX003 (ip), vehicle: saline) 91 % of control.

For the molecule `S=C(S)n1nc(-c2ccccc2)c(N=Nc2ccc(Br)cc2)c1-c1ccccc1`, the T/C by setting is: (dose: 100.0 mg/kg/injection, schedule: Q04DX002 (ip), vehicle: Klucel (hydroxypropylcellulose) (HPC)) 107 % of control; (dose: 200.0 mg/kg/injection, schedule: Q04DX002 (ip), vehicle: Klucel (hydroxypropylcellulose) (HPC)) 110 % of control; (dose: 400.0 mg/kg/injection, schedule: Q04DX002 (ip), vehicle: Klucel (hydroxypropylcellulose) (HPC)) 113 % of control.

For the molecule `CNC=O`, the T/C runs as follows: (dose: 80.0 mg/kg/injection, schedule: Q01DX005 (ip), vehicle: water) 108 % of control; (dose: 160.0 mg/kg/injection, schedule: Q01DX005 (ip), vehicle: water) 115 % of control; (dose: 197.6 mg/kg/injection, schedule: Q01DX005 (ip), vehicle: saline) 116 % of control; (dose: 197.6 mg/kg/injection, schedule: Q01DX005 (iv), vehicle: saline) 120 % of control; (dose: 296.3 mg/kg/injection, schedule: Q01DX005 (ip), vehicle: water) 107 % of control; (dose: 296.5 mg/kg/injection, schedule: Q01DX001 (ip), vehicle: saline) 101 % of control. Besides, the T/C is, setting by setting: (dose: 296.5 mg/kg/injection, schedule: Q01DX001 (iv), vehicle: saline) 100 % of control; (dose: 320.0 mg/kg/injection, schedule: Q01DX005 (ip), vehicle: water) 118 % of control; (dose: 444.4 mg/kg/injection, schedule: Q01DX005 (ip), vehicle: water) 122 % of control; (dose: 444.5 mg/kg/injection, schedule: Q01DX001 (ip), vehicle: saline) 104 % of control; (dose: 444.5 mg/kg/injection, schedule: Q01DX001 (iv), vehicle: saline) 103 % of control; (dose: 444.5 mg/kg/injection, schedule: Q01DX001 (oral), vehicle: saline) 103 % of control. Moreover, the T/C is 98 % of control (dose: 444.5 mg/kg/injection, schedule: Q01DX009 (ip), vehicle: saline); 173 % of control (dose: 444.5 mg/kg/injection, schedule: Q01DX009 (oral), vehicle: saline); 107 % of control (dose: 666.7 mg/kg/injection, schedule: Q01DX001 (ip), vehicle: saline); 111 % of control (dose: 666.7 mg/kg/injection, schedule: Q01DX001 (iv), vehicle: saline); 114 % of control (dose: 666.7 mg/kg/injection, schedule: Q01DX001 (oral), vehicle: saline); 156 % of control (dose: 666.7 mg/kg/injection, schedule: Q01DX005 (ip), vehicle: saline). In addition, the T/C was 166 % of control (dose: 666.7 mg/kg/injection, schedule: Q01DX005 (ip), vehicle: water); 93 % of control (dose: 666.7 mg/kg/injection, schedule: Q01DX009 (ip), vehicle: saline); 98 % of control (dose: 666.7 mg/kg/injection, schedule: Q01DX009 (oral), vehicle: saline); 116 % of control (dose: 1000.0 mg/kg/injection, schedule: Q01DX001 (ip), vehicle: saline); 119 % of control (dose: 1000.0 mg/kg/injection, schedule: Q01DX001 (iv), vehicle: saline); 116 % of control (dose: 1000.0 mg/kg/injection, schedule: Q01DX001 (oral), vehicle: saline). Besides, the T/C runs as follows: (dose: 1000.0 mg/kg/injection, schedule: Q01DX005 (iv), vehicle: saline) 86 % of control; (dose: 1000.0 mg/kg/injection, schedule: Q01DX005 (oral), vehicle: saline) 95 % of control; (dose: 1000.0 mg/kg/injection, schedule: Q01DX009 (oral), vehicle: saline) 98 % of control; (dose: 1280.0 mg/kg/injection, schedule: Q01DX005 (ip), vehicle: water) 161 % of control; (dose: 1500.0 mg/kg/injection, schedule: Q01DX001 (ip), vehicle: saline) 120 % of control; (dose: 1500.0 mg/kg/injection, schedule: Q01DX005 (oral), vehicle: saline) 86 % of control.

On to `CCC[CH2][Sn]([CH2]CCC)([CH2]CCC)[S]C(=S)NCCNC(=S)[S][Sn]([CH2]CCC)([CH2]CCC)[CH2]CCC`, for which the T/C (dose: 6.25 mg/kg/injection, schedule: Q01DX010 (ip), vehicle: saline) is 120 % of control.

Take `Oc1ccccc1C=Nc1c(Cl)cc(Cl)cc1Cl`: the T/C is 105 % of control under setting [1], 109 % of control under setting [2] and 107 % of control under setting [3].

In the case of `COc1cc(NCCN(C(C)C)C(C)C)c2ncccc2c1`, the T/C was 101 % of control (dose: 12.5 mg/kg/injection, schedule: Q01DX005 (ip), vehicle: saline); 93 % of control (dose: 25.0 mg/kg/injection, schedule: Q01DX005 (ip), vehicle: saline); 90 % of control and 92 % of control (dose: 50.0 mg/kg/injection, schedule: Q01DX005 (ip), vehicle: saline).

On to `CC(=O)OC1C(=O)C=C(C)OC1=O` (stereo unspecified), for which the T/C by setting is: (dose: 60.0 mg/kg/injection, schedule: Q01DX005 (ip), vehicle: saline with Tween-80) 102 % of control; (dose: 120.0 mg/kg/injection, schedule: Q01DX005 (ip), vehicle: saline with Tween-80) 99 % of control; (dose: 240.0 mg/kg/injection, schedule: Q01DX005 (ip), vehicle: saline with Tween-80) 106 % of control.

Take `O=C(NCCCCC(NC(=O)c1ccccc1)C(=O)O)OCc1ccccc1` (stereo unspecified): the T/C reads like this: (dose: 50.0 mg/kg/injection, schedule: Q01DX005 (ip), vehicle: saline with Tween-80) 96 % of control; (dose: 100.0 mg/kg/injection, schedule: Q01DX005 (ip), vehicle: saline with Tween-80) 100 % of control; (dose: 200.0 mg/kg/injection, schedule: Q01DX005 (ip), vehicle: saline with Tween-80) 92 % of control.

Regarding `Cc1cn(C)c2c1-c1[nH]ncc1CC2`, the T/C was 100 % of control (dose: 50.0 mg/kg/injection, schedule: Q04DX003 (ip), vehicle: Klucel (hydroxypropylcellulose) (HPC)); 99 % of control (dose: 100.0 mg/kg/injection, schedule: Q04DX003 (ip), vehicle: Klucel (hydroxypropylcellulose) (HPC)); 103 % of control (dose: 200.0 mg/kg/injection, schedule: Q04DX003 (ip), vehicle: Klucel (hydroxypropylcellulose) (HPC)).
